Data set [1] has as its target Nitric oxide synthase, inducible (Homo sapiens) (UniProt P35228). Briefly: Inhibition of recombinant N-terminal His-tagged human iNOS expressed in Escherichia coli assessed as L-[3H]-citrulline formation at 1 mM using L-[3H]-arginine as substrate after 30 mins by liquid scintillation spectroscopy.
Target sequence in this assay (P35228 whole entry): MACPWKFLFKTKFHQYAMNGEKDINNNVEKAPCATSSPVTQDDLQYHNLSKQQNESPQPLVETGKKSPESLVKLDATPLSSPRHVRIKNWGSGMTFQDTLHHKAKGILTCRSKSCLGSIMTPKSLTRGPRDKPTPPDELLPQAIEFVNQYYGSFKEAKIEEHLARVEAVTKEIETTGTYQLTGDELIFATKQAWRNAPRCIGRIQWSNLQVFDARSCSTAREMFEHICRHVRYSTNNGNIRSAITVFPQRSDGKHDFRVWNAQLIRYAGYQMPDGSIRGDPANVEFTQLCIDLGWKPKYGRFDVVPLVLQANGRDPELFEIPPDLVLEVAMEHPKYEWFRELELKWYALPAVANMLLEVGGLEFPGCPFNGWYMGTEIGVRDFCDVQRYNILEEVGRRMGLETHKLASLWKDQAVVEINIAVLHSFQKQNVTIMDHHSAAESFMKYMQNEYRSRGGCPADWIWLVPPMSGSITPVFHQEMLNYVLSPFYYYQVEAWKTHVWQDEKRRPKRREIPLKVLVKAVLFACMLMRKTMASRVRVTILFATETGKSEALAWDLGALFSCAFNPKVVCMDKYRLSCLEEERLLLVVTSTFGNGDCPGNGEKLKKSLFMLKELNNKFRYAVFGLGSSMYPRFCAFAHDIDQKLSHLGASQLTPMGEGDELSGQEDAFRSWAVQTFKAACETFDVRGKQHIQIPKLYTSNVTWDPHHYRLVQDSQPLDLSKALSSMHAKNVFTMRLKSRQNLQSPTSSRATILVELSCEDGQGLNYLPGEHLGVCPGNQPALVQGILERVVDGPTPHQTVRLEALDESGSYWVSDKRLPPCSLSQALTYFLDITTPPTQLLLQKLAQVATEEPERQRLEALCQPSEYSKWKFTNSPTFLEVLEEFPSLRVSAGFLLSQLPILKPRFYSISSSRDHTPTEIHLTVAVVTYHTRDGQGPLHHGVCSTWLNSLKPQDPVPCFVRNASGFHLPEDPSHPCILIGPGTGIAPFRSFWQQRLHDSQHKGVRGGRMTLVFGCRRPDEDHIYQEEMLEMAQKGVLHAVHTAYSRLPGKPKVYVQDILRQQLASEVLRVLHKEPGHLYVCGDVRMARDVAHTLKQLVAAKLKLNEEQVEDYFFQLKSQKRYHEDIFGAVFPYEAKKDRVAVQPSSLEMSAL
Data set [2] concerns the target Nitric oxide synthase 1 (Homo sapiens) (UniProt P29475). Briefly: Inhibition of recombinant nNOS (unknown origin) assessed as L-[3H]-citrulline formation at 1 mM using L-[3H]-arginine as substrate after 30 mins by liquid scintillation spectroscopy.
For data set [3], the target named is Nitric oxide synthase, brain (Homo sapiens) (UniProt P29475). Description: Inhibition of recombinant N-terminal His-tagged human nNOS expressed in Escherichia coli assessed as L-[3H]-citrulline formation using L-[3H]-arginine as substrate after 30 mins by liquid scintillation spectroscopy.
Nitric oxide synthase, brain (Homo sapiens), sequence (P29475 whole entry, looked up): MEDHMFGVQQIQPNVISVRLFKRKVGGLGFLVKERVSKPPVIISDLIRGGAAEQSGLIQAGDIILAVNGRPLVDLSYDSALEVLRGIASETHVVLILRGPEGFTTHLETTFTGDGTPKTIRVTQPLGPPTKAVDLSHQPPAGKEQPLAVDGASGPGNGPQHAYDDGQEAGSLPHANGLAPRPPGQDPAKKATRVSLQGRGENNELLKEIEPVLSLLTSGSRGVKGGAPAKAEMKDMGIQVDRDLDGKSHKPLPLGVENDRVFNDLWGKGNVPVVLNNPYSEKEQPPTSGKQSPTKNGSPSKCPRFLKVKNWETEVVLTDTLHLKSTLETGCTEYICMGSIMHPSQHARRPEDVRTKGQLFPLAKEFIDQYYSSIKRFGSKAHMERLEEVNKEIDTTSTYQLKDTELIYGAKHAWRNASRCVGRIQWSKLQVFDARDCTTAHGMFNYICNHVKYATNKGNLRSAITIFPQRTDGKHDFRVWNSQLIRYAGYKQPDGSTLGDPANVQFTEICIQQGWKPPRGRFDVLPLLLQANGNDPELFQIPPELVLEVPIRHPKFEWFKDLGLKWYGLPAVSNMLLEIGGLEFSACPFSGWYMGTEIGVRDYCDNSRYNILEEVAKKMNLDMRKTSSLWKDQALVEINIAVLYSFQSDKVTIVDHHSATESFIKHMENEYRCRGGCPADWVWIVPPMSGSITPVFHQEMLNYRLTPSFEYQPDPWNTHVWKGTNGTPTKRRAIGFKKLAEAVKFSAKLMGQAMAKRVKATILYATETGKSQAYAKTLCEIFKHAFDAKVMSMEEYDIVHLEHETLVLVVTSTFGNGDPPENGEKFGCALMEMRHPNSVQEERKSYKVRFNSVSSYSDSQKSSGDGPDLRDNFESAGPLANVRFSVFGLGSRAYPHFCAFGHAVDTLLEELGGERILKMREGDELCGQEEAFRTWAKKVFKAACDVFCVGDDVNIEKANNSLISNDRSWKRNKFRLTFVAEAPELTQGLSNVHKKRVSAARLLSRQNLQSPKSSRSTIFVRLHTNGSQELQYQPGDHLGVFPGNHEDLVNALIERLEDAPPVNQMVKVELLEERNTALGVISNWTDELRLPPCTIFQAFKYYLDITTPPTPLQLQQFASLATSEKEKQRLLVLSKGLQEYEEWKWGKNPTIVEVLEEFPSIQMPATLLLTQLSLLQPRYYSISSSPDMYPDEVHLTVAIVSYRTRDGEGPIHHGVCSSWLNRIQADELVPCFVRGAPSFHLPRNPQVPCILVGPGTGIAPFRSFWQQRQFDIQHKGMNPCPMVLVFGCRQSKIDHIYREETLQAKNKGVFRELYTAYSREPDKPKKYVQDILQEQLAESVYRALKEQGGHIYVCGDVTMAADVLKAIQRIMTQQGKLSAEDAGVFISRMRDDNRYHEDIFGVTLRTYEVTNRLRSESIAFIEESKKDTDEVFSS
In data set [4] the target is Nitric oxide synthase, inducible (Homo sapiens) (UniProt P35228). Briefly: Inhibition of recombinant iNOS (unknown origin) assessed as L-[3H]-citrulline formation using L-[3H]-arginine as substrate after 30 mins by liquid scintillation spectroscopy.
Target sequence in this assay (P35228 whole entry, looked up): as the sequence (P35228 whole entry) above
Another data set has as its system HUVEC. Briefly: Cytotoxicity against HUVEC cells assessed as reduction in cell viability at >1 mM after 30 mins by MTT assay. Format: cell-based. The following applies: human, 0.5 h. (In general: Tetrazolium assays rely on reduction of a dye to a coloured formazan, in cell work by metabolically active cells.)
For data set [5], the target named is T1, Nitric oxide synthase 3 (Rattus norvegicus) (UniProt Q62600).
T1 sequence (whole entry): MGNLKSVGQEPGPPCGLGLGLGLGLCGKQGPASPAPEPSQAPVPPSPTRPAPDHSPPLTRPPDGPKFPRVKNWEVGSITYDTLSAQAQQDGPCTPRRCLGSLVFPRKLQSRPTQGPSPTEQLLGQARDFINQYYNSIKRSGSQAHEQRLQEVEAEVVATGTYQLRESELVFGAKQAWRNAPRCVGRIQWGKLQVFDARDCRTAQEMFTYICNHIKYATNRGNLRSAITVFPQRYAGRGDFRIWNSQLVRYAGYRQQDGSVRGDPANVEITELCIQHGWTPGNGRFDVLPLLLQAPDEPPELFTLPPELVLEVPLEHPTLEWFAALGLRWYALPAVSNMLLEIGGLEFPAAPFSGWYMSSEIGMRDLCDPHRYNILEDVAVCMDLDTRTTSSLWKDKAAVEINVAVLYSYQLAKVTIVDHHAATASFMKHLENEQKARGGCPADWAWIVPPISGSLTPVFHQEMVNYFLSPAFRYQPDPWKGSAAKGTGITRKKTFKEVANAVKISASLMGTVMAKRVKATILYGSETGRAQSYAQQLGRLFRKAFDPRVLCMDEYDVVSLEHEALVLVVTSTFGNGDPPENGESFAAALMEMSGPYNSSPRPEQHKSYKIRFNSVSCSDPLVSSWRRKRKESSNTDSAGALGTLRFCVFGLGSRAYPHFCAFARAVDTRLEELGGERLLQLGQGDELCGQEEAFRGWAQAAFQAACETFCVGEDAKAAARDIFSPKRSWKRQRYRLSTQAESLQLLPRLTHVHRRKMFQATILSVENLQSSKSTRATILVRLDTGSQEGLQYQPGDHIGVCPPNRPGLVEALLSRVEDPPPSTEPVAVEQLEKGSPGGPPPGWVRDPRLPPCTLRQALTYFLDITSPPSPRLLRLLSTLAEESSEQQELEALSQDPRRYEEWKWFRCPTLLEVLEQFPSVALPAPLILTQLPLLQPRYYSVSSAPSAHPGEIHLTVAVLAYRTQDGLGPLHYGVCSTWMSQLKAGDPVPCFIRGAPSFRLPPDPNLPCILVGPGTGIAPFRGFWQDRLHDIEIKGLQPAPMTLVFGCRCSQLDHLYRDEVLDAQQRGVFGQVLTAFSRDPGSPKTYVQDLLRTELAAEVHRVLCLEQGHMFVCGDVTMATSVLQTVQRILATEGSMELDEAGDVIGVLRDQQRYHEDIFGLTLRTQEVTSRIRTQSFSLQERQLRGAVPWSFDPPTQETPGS
Description: Inhibition of eNOS in Wistar rat aortic rings assessed as effect on acetylcholine evoked endothelial dependent relaxation of precontracted aortic rings at 100 umol/l after 30 mins.

The target of data set [6] is T2, Nitric oxide synthase 3 (Homo sapiens) (UniProt P29474).
T2 sequence (whole entry): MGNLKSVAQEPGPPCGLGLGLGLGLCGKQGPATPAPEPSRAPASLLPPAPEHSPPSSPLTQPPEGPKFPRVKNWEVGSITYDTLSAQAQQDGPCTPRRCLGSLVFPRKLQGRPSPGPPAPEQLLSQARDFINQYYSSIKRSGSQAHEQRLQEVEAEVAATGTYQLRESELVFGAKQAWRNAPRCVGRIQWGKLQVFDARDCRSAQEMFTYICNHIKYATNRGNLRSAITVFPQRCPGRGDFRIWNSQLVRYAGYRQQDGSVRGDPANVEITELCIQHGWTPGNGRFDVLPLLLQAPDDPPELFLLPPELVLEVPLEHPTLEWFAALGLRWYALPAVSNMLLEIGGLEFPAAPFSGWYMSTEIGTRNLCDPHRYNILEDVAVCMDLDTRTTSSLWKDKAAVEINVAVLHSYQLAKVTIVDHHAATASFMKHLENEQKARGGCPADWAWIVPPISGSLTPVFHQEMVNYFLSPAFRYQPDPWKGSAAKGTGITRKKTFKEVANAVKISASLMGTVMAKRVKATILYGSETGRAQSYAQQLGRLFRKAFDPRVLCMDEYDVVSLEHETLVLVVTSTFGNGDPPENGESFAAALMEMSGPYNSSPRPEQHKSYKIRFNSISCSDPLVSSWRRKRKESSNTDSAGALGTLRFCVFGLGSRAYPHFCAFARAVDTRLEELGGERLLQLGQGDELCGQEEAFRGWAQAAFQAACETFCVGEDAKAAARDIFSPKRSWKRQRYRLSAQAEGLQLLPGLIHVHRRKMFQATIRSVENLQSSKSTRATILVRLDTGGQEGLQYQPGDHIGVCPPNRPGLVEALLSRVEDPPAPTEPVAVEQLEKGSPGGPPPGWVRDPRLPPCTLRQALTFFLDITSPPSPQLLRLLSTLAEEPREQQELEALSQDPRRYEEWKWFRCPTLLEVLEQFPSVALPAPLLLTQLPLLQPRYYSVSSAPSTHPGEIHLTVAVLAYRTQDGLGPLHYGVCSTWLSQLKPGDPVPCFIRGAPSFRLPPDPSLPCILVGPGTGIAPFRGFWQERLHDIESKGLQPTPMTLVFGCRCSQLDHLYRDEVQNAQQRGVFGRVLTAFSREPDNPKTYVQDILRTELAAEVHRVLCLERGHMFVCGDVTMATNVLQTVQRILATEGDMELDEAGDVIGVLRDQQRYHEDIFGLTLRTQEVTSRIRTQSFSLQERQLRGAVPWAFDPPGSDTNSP
Briefly: Inhibition of eNOS in HUVEC cells assessed as A23187 stimulated nitric oxide production at 100 umol/L preincubated for 30 mins using L-arginine as substrate for 5 mins followed A23187 addition measured after 30 mins by DAF2 dye based spectrofluorimetry. Format: cell-based.

Data set [7] deals with T1, Nitric oxide synthase 3 (Rattus norvegicus). Description: Inhibition of eNOS in Wistar rat aortic rings assessed as suppression of acetylcholine evoked endothelial dependent relaxation of precontracted aortic rings at 100 umol/l after 30 mins.

From ChEMBL document CHEMBL3797128, “N,N-Disubstituted thiourea and urea derivatives: design, synthesis, docking studies and biological evaluation against nitric oxide synthase” (Medchemcomm, 2016) come the findings set out here.

By inhibition is commonly meant the share of the control response that was lost under treatment. One may read the IC50 as the concentration needed to halve the response being measured.

Molecules are shown by their SMILES. Active and inactive are the calls of the source. The rule behind the calls is not given here.

Nitric oxide synthase 1 (Homo sapiens), sequence (P29475 whole entry): as the sequence (P29475 whole entry, looked up) above

For the molecule `CCCNC(=O)NCCC(O)c1cc(OC)ccc1N` (stereo unspecified), the inhibition was 14.7% in data set [1] and 15.8% in data set [2].
`CCCNC(=S)NCCC(O)c1cc(Cl)ccc1N` (stereo unspecified): the concentration for half-maximal inhibition (IC50) in data set [3] is over 1000 µM; in data set [4] it was 860 µM. Also, the inhibition in data set [1] was determined as 55%; in data set [2] it was 32.4%.
In the case of `Nc1ccc(Cl)cc1C(=O)CCNC(=O)c1ccccc1`, the inhibition in data set [1] amounted to 26.6%.
Take `CCNC(=O)NCCC(O)c1cc(OC)ccc1N` (stereo unspecified): the inhibition amounted to 26.6% in data set [1] and 43% in data set [2].
As for `CCNC(=S)NCCC(O)c1cc(Cl)ccc1N` (stereo unspecified), the figures for the IC50 in data set [3] and in data set [4] were 770 µM and 800 µM, respectively. The values for the inhibition in data set [1] and in data set [2] were 60.4% and 70.6%, respectively.
As for `CCNC(=O)NCCC(O)c1cc(Cl)ccc1N` (stereo unspecified), the values for the inhibition in data set [1] and in data set [2] were 33.9% and 15.2%, respectively.
Consider `CCCNC(=O)NCCC(O)c1ccccc1N` (stereo unspecified), for which the inhibition in data set [1] is 19%; in data set [2], 7%.
For the molecule `CNC(=S)NCCC(O)c1cc(OC)ccc1N` (stereo unspecified), the Activity in the data set on HUVEC stood at 20%. Besides, the half-inhibitory concentration (IC50) in data set [3] stood at 130 µM; in data set [4], 180 µM. Also, the inhibition in data set [1] turned out to be 76.5%; in data set [2] it was 80.5%. Moreover, the inhibition result in data set [5] and in data set [6] was “inactive” each time.
In the case of `CCCNC(=O)NCCC(O)c1cc(Cl)ccc1N` (stereo unspecified), the results for the inhibition in data set [1] and in data set [2] were 19.6% and 23.8%, respectively.
On to `CC(=O)NCCC(=O)c1cc(Cl)ccc1N`, for which the inhibition in data set [1] amounted to 19.7%.
Consider `COc1ccc(N)c(C(=O)CCNC(C)=O)c1`, for which the inhibition in data set [1] was 30.7%.
`CCC(=O)NCCC(=O)c1cc(OC)ccc1N`: the inhibition in data set [1] came out at 0.24%.
Still for that read-out and setting: next, `COc1ccc(N)c(C(=O)CCNC(=O)C2CCCC2)c1`: 0.61%.
`CCCNC(=S)NCCC(O)c1cc(OC)ccc1N` (stereo unspecified): the inhibition in data set [1] turned out to be 25.4%; in data set [2], 6.02%.
For the molecule `Nc1ccc(Cl)cc1C(=O)CCNC(=O)C1CC1`, in data set [1], the inhibition was 5.37%.
Take `COc1ccc(N)c(C(=O)CCNC(=O)C2CCC2)c1`: the inhibition in data set [1] is 0.01%.
On to `CCNC(=S)NCCC(O)c1ccccc1N` (stereo unspecified), for which the inhibition in data set [1] was 19.4%; in data set [2] it was 44.8%.
For `Nc1ccc(Cl)cc1C(O)CCNC(=O)Nc1ccccc1` (stereo unspecified), the inhibition in data set [1] turned out to be 3.11%; in data set [2] it was 38.6%.
Consider `COC(=O)[C@@H](N)CCCNC(=N)N[N+](=O)[O-]`, for which the inhibition entry in data set [7] is “Active”.
Consider `Nc1ccccc1C(O)CCNC(=O)Nc1ccccc1` (stereo unspecified), for which the figures for the inhibition in data set [1] and in data set [2] were 27.9% and 17.7%, respectively.
`CNC(=S)NCCC(=O)c1cc(OC)ccc1N`: the inhibition in data set [1] was found to be 78.2%; in data set [2] it was 46%.
In the same order, the values of `CCNC(=O)NCCC(O)c1ccccc1N` (stereo unspecified) are 18.3% and 7.81%.
For the molecule `CNC(=S)NCCC(O)c1ccccc1N` (stereo unspecified), the IC50 was 350 µM in data set [3] and over 1000 µM in data set [4]. Also, the inhibition is 20.7% in data set [1] and 70.2% in data set [2].
On to `COc1ccc(N)c(C(=O)CCNC(=O)C2CC2)c1`, for which the inhibition in data set [1] stood at 2.66%.
Still for that read-out and setting: to `CCCCC(=O)NCCC(=O)c1cc(OC)ccc1N` belongs 14.1%.
In the case of `CNC(=S)NCCC(O)c1cc(Cl)ccc1N` (stereo unspecified), the results for the IC50 in data set [3] and in data set [4] were 710 µM and over 1000 µM, respectively. For the same molecule, the inhibition in data set [1] came to 22.1%; in data set [2], 70.5%.
As for `COc1ccc(N)c(C(=O)CCNC(=O)c2ccccc2)c1`, in data set [1], the inhibition was found to be 10.9%.
Take `CCCC(=O)NCCC(=O)c1cc(OC)ccc1N`: in data set [1], the inhibition was determined as 7.35%.
Take `COc1ccc(N)c(C(=O)CCNC(=O)C2CCCCC2)c1`: in data set [1], the inhibition is 9.24%.
Consider `CCNC(=O)NCCC(=O)c1cc(Cl)ccc1N`, for which the inhibition amounted to 78.6% in data set [1] and 9.86% in data set [2].
As to `CCCNC(=S)NCCC(O)c1ccccc1N` (stereo unspecified), the half-maximal inhibitory concentration (IC50) is 880 µM in data set [3] and over 1000 µM in data set [4]. The inhibition is 31.1% in data set [1] and 51.7% in data set [2].
Take `COc1ccc(N)c(C(O)CCNC(=O)Nc2ccccc2)c1` (stereo unspecified): the inhibition in data set [1] came out at 12.3%; in data set [2], 12.1%.
